In patent publication US8716318B2, “Pyridone sulfonamides and pyridone sulfamides as MEK inhibitors” (Ardea Biosciences, priority 2006, dated 2014):

How the values were obtained:
[1] = target: T1, human GST-MEK1^CA (Ser218Asp, Ser222Asp) (Homo sapiens, UniProt Q02750, S218D/S222D); assay: MEK1 kinase assay (generation of IC50 data, 33P filter assay with ERK2 and MBP); assay type: biochemical; settings: ATP
T1 construct: GST; made in house; host or cells: Escherichia coli
Source text: Materials and preparation of reagents: Human GST-MEK1 and the constitutively active allele GST-MEK1^CA (harboring the mutations Ser218Asp and Ser222Asp) were subcloned into the yeast expression vector pGEM4Z (Promega, Madison, Wis.) from the wild type human MEK1 cDNA. GST-MEK1^CA was expressed in Escherichia coli and partially purified using Glutathione Sepharose 4B affinity resin (Amersham Pharmacia Biotech, Piscataway, N.J.). The ERK2 allele was subcloned from MAPK2/Erk2 cDNA (wild type) in pUSEamp (Upstate Biotechnology, Inc., Waltham, Mass.) into the vector pET21a (Novagen, Madison, Wis.) resulting in an N-terminal histidine-tagged mouse ERK2 allele. ERK2 was expressed and purified to homogeneity [Zhang, 1993 #33]. Myelin basic protein (MBP) was purchased from Gibco BRL (Rockville, Md.). EasyTides adenosine 5′-triphosphate (ATP) ([γ-^33P]) (NEN Perkin Elmer, Wellesley, Mass.) was the source of radiolabel for all kinase reactions. Activated Raf-1 (truncated) and activated MAPKinase 2/ERK2 were purchased from Upstate, Inc. (Lake Placid, N.Y.). 4-20% Criterion Precast gels were purchased from Bio-Rad (Hercules, Calif.).
Determination of enzymatic activity: Compounds were diluted from dimethylsulfoxide (DMSO) stocks into 1×HMNDE (20 mM HEPES pH 7.2, 1 mM MgCl2, 100 mM NaCl, 1.25 mM DTT, 0.2 mM EDTA). A typical 25-microliter assay contained 0.002 nanomoles MEK1^CA, 0.02 nanomoles ERK2, 0.25 nanomoles MBP, 0.25 nanomoles unlabeled ATP, and 0.1 μCi [γ^33P] ATP. The screening assay essentially comprised four additions. Five μl of diluted compound were dispensed to 96-well assay plates. Ten μl of 2.5× enzyme cocktail (MEK1^CA and ERK2 only) were then added to each well followed by a pre-incubation for 30 minutes at ambient temperature. Ten μl of 2.5× substrate cocktail (labeled and unlabeled ATP plus MBP) were then added, followed by incubation for 60 minutes at ambient temperature. Finally, 100 μl of 10% trichloroacetic acid (TCA) were added and incubated for 30 minutes at room temperature to halt the reaction and precipitate radiolabeled protein products. Reaction products were harvested on glass fiber 96 well filter plates prewetted with water and 1% pyrophosphate. The filter plate was then washed 5 times with water. Water was displaced by absolute ethanol and the plate was allowed to air dry for 30 minutes at room temperature. A back seal was applied manually and 40 μl of scintillation cocktail were dispensed to each well. A top seal was applied and the plate was counted in the TopCount for two seconds per well.

[2] = EC50 (no method described)
[3] = system: A375 cells; assay: Growth inhibition assay (GI50), A375 cells, CellTiterGlo; assay type: cell-based; settings: Homo sapiens, A-375, 48 hr, ATP levels
Protocol: For growth inhibition experiments, A375 cells were plated in white 384-well microplates at 1000 cells/[…]/well. After 24 hr, […] of a 5× drug stock solution was added. All drugs were initially prepared as 200× stocks in DMSO, such that final DMSO concentration was 0.5%. Cells were incubated for 48 hr at 37° C. and ATP levels were determined using CellTiterGlo (Promega, Madison, Wis.). A control MEK inhibitor was used to determine the ATP level corresponding to full growth inhibition and the concentration of test compound that gave ATP levels midway between full growth inhibition and vehicle only ATP levels was determined to be the GI50 using non-linear regression (GraphPad Prism 4).

[4] = system: THP-1; assay: Growth inhibition assay (GI50), THP-1; assay type: cell-based; settings: Homo sapiens

T1 sequence (Q02750 whole entry S218D/S222D): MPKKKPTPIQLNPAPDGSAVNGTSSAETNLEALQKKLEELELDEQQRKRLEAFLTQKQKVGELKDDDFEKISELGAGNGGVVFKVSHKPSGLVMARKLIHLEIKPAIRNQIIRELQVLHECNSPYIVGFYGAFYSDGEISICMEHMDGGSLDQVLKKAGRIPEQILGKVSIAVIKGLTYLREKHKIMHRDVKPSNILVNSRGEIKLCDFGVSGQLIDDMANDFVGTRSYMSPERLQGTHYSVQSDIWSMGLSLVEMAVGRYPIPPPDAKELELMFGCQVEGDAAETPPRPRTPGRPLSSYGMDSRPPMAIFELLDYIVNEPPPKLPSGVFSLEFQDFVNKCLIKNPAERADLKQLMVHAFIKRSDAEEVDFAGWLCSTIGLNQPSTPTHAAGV

Compound: Cc1c(Nc2ccc(I)cc2F)c(NS(=O)(=O)C2(Cl)CC2)cn(C)c1=O [Example 10, 1-Chloro-Cyclopropanesulfonic acid [4-(2-fluoro-4-iodo-phenylamino)-1,5-dimethyl-6-oxo-1,6-dihydro-pyridin-3-yl]-amide]
- IC50 [1]: 100 to 500 nM
- EC50 [2]: < 100 nM

Compound: Cn1cc(NS(=O)(=O)C2CC2)c(Nc2ccc(I)cc2F)c(F)c1=O [Example 4, N-(5-fluoro-4-(2-fluoro-4-iodophenylamino)-1-methyl-6-oxo-1,6-dihydropyridin-3-yl)cyclopropanesulfonamide]
- IC50 [1]: < 100 nM
- EC50 [2]: < 100 nM
- GI50 [3]: < 100 nM
- GI50 [4]: > 1000 nM

Compound: Cn1cc(NS(=O)(=O)C2(CC(O)CO)CC2)c(Nc2ccc(I)cc2F)cc1=O (stereo not drawn) [Example 2, 1-(2,3-dihydroxypropyl)-N-(4-(2-fluoro-4-iodophenylamino)-1-methyl-6-oxo-1,6-dihydropyridin-3-yl)cyclopropane-1-sulfonamide]
- IC50 [1]: 500 to 1000 nM
- EC50 [2]: 500 to 1000 nM
- GI50 [3]: > 1000 nM
- GI50 [4]: > 1000 nM

Compound: Cn1cc(NS(=O)(=O)C2CC2)c(Nc2ccc(I)cc2F)c(Cl)c1=O [Example 9, Cyclopropanesulfonic acid [5-chloro-4-(2-fluoro-4-iodo-phenylamino)-1-methyl-6-oxo-1,6-dihydro-pyridin-3-yl]-amide]
- IC50 [1]: < 100 nM
- EC50 [2]: < 100 nM
- GI50 [3]: 500 to 1000 nM
- GI50 [4]: > 1000 nM

Compound: CN(C)S(=O)(=O)Nc1cn(C)c(=O)cc1Nc1ccc(I)cc1F [Example 6, N-(4-(2-fluoro-4-iodophenylamino)-1-methyl-6-oxo-1,6-dihydropyridin-3-yl)dimethyl-1-sulfamide]
- IC50 [1]: > 1000 nM
- EC50 [2]: 500 to 1000 nM
- GI50 [3]: 500 to 1000 nM
- GI50 [4]: 100 to 500 nM

Compound: Cn1cc(NS(=O)(=O)C2(CC(O)CO)CC2)c(Nc2ccc(I)cc2F)c(F)c1=O (stereo not drawn) [Example 11, 1-(2,3-Dihydroxy-propyl)-cyclopropanesulfonic acid [5-fluoro-4-(2-fluoro-4-iodo-phenylamino)-1-methyl-6-oxo-1,6-dihydro-pyridin-3-yl]-amide]
- IC50 [1]: < 100 nM
- EC50 [2]: 100 to 500 nM

Compound: Cn1cc(NS(=O)(=O)C2CC2)c(Nc2ccc(Br)cc2F)c(Cl)c1=O [Example 3, N-(5-chloro-4-(2-fluoro-4-bromophenylamino)-1-methyl-6-oxo-1,6-dihydropyridin-3-yl)cyclopropanesulfonamide]
- IC50 [1]: 500 to 1000 nM
- EC50 [2]: 100 to 500 nM
- GI50 [3]: > 1000 nM
- GI50 [4]: > 1000 nM

Compound: Cn1cc(NS(=O)(=O)C2CC2)c(Nc2ccc(I)cc2F)cc1=O [Example 1, N-(4-(2-fluoro-4-iodophenylamino)-1-methyl-6-oxo-1,6-dihydropyridin-3-yl)cyclopropanesulfonamide]
- IC50 [1]: 500 to 1000 nM
- EC50 [2]: < 100 nM
- GI50 [3]: < 100 nM
- GI50 [4]: < 100 nM

Compound: Cn1cc(NS(=O)(=O)NCC(O)CO)c(Nc2ccc(I)cc2F)cc1=O (stereo not drawn) [Example 13]
- IC50 [1]: > 1000 nM
- GI50 [3]: > 1000 nM
- GI50 [4]: > 1000 nM

Compound: Cn1cc(NS(=O)(=O)C2CC2)c(Nc2ccc(Br)cc2F)c(F)c1=O [Example 7, Cyclopropanesulfonic acid [4-(4-bromo-2-fluoro-phenylamino)-5-fluoro-1-methyl-6-oxo-1,6-dihydro-pyridin-3-yl]-amide]
- IC50 [1]: 500 to 1000 nM
- GI50 [3]: > 1000 nM
- GI50 [4]: > 1000 nM

Compound: Cn1cc(NS(=O)(=O)C2CC2)c(Nc2ccc(Br)cc2F)cc1=O [Example 8, Cyclopropanesulfonic acid [4-(4-bromo-2-fluoro-phenylamino)-1-methyl-6-oxo-1,6-dihydro-pyridin-3-yl]-amide]
- IC50 [1]: > 1000 nM

Compound: Cn1cc(NS(=O)(=O)C2(CC(=O)CO)CC2)c(Nc2ccc(I)cc2F)c(F)c1=O [Example 12, 1-(3-Hydroxy-2-oxo-propyl)-cyclopropanesulfonic acid [5-fluoro-4-(2-fluoro-4-iodo-phenylamino)-1-methyl-6-oxo-1,6-dihydro-pyridin-3-yl]-amide]
- IC50 [1]: < 100 nM
- EC50 [2]: < 100 nM

Compound: Cc1c(Nc2ccc(I)cc2F)c(NS(=O)(=O)C2CC2)cn(C)c1=O [Example 5, N-(4-(2-fluoro-4-iodophenylamino)-1,5-dimethyl-6-oxo-1,6-dihydropyridin-3-yl)cyclopropanesulfonamide]
- IC50 [1]: < 100 nM
- EC50 [2]: < 100 nM
